Data published in patent US11685732B2, “MYST family histone acetyltransferase inhibitors” (Epizyme, Inc., priority 2017, dated 2023).

How the values were obtained:
[1] = biological target: KAT-5 (Homo sapiens (Human), UniProt Q92993); experiment: KAT-5 biochemical inhibition assay (SAMDI mass spectrometry)
In short: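 KAT-5 at 9 nM final was preincubated with serially diluted compound (2% DMSO) in 50 mM Tris pH 8.0 with 1 mM DTT. Reaction ran with 1 μM peptide substrate and 0.5 μM acetyl-CoA for 90 min at 25° C, was quenched with 0.5% formic acid, and was read by SAMDI-TOF mass spectrometry.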

[2] = biological target: KAT-6A (Homo sapiens (Human), UniProt Q92794); experiment: KAT-6A biochemical inhibition assay (SAMDI mass spectrometry)
In short: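 Enzyme (12.5 nM final) pre-incubated with serially diluted compounds (2% DMSO final) in 50 mM Tris pH 8.0 with Tween20, gelatin and 1 mM DTT. Reaction started with 1 μM peptide substrate and 1 μM acetyl-CoA, run 90 min at 25 °C, quenched with 0.5% formic acid, read by SAMDI-TOF mass spectrometry; IC50 derived.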

[3] = biological target: KAT-7 (Homo sapiens (Human), UniProt O95251); experiment: KAT-7 biochemical inhibition assay (SAMDI mass spectrometry)
In short: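 KAT-7 (6 nM) was pre-incubated with serially diluted compound (2% DMSO) in Tris pH 8.0 with DTT. Reaction with 1 μM peptide and 2 μM acetyl-CoA ran 120 min at 25 °C and was stopped with 0.5% formic acid. Acetylation was read by SAMDI-TOF mass spectrometry to give IC50.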

[4] = biological target: KAT-8 (Homo sapiens (Human), UniProt Q9H7Z6); experiment: KAT-8 biochemical inhibition assay (SAMDI mass spectrometry)
Experimental: KAT-8. Enzyme assay buffer was 50 mM Tris pH 8.0, 0.002% Tween20, 0.005% bovine skin gelatin, and 1 mM dithiothreitol (DTT). For determination of IC50 values, compounds were serially diluted with 2% (v/v) DMSO in the final reaction, pre-incubating each dilution of each compound with 40 μL of assay buffer containing KAT-8 enzyme (12.5 nM final concentration). 10 μL of assay buffer containing 1 μM peptide substrate and 5 μM acetyl coenzyme A (final concentrations) was added. Reactions (50 μL total) were then carried out at 25° C. for 90 minutes. Reactions were terminated by the addition of 0.5% formic acid (final concentration), and a sample of each reaction was analyzed by SAMDI Tech, Inc. (Chicago, Ill.) using self-assembled monolayer desorption/ionization time-of-flight mass spectrometry (Mrksich, M. (2008) Mass spectrometry of self-assembled monolayers: a new tool for molecular surface science. ACS Nano 2, 7-18).

Chain of KAT-7 (O95251 other isoform, or with tags, fused parts or gaps): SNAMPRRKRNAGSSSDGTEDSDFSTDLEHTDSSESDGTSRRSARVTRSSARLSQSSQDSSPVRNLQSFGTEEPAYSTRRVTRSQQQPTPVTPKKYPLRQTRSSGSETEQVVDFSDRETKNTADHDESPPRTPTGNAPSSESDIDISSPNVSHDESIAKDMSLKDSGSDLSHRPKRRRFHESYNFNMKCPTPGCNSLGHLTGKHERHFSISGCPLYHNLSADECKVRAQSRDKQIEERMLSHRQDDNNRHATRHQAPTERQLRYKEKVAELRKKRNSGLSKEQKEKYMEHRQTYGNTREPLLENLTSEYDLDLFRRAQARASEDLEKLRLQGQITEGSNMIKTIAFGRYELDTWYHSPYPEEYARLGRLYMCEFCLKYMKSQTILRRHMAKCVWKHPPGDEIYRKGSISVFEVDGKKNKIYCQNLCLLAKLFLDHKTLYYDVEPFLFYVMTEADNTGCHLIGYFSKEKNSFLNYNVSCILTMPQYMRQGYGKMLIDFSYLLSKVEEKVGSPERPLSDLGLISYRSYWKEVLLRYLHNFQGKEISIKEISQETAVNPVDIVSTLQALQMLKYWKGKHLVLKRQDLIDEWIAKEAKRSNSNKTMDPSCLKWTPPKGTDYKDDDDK
Chain of KAT-8 (Q9H7Z6 other isoform, or with tags, fused parts or gaps): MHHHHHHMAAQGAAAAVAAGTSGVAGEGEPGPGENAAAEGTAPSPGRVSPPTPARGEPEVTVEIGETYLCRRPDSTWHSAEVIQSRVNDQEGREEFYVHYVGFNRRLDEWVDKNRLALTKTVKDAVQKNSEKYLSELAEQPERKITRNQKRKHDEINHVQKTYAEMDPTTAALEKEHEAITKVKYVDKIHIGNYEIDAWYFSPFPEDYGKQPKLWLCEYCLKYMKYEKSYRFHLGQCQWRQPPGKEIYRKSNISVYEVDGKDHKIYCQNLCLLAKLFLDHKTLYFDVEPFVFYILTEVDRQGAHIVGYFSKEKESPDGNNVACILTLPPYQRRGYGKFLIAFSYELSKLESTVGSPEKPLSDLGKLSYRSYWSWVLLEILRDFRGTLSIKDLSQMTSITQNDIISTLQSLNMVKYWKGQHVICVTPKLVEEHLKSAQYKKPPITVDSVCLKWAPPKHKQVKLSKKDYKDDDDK
Chain of KAT-6A (Q92794 other isoform, or with tags, fused parts or gaps): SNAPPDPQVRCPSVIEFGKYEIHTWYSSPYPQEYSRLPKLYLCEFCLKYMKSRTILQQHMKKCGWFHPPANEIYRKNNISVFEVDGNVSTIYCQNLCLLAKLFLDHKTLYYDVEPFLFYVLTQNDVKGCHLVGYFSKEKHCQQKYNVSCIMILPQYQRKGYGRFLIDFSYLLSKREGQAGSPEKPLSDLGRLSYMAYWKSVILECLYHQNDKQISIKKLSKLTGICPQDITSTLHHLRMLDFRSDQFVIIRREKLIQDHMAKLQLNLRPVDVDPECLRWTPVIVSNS
Chain of KAT-5 (Q92993 other isoform, or with tags, fused parts or gaps): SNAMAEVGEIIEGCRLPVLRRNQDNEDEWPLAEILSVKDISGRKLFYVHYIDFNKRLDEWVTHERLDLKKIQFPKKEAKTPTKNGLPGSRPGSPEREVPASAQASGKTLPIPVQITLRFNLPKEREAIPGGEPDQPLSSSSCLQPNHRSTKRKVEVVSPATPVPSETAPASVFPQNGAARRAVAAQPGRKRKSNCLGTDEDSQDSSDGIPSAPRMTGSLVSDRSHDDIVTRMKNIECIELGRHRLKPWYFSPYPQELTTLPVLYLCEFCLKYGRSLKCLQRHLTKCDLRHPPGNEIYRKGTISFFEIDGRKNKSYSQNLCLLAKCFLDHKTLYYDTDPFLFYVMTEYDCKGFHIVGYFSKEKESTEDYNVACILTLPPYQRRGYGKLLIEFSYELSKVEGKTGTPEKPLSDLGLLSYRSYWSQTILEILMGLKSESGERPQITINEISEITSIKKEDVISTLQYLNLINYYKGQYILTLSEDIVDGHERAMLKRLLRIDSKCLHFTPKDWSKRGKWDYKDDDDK

| SMILES | IC50 [1] [µM] | IC50 [2] [µM] | IC50 [3] [µM] | IC50 [4] [µM] |
| --- | --- | --- | --- | --- |
| Cn1cnc(-c2cc(Cl)c(F)c(C(=O)NNS(=O)(=O)c3cnnn3C)c2)c1 [Compound I-71] | 10 to 50 | 10 to 50 | < 10 | 10 to 50 |
| Cc1ncn(C)c1-c1cc(Cl)c(F)c(C(=O)NNS(=O)(=O)CC2CCCCC2)c1 [Compound I-45] | > 100 | > 100 | 50 to 100 | > 100 |
| Cn1ccc(-c2cc(Cl)c(F)c(C(=O)NNS(=O)(=O)CC3CCOCC3)c2)n1 [Compound I-6] | 10 to 50 | < 10 | 10 to 50 | > 100 |
| Cc1cc(-c2cn(C)cn2)cc(C(=O)NNS(=O)(=O)C2CCCCC2)c1F [Compound I-127] | < 10 | 10 to 50 | < 10 | > 100 |
| Cn1cnc(-c2cc(Cl)c(F)c(C(=O)NNS(=O)(=O)CC3CCCC(NC(N)=O)C3)c2)c1 (stereo not shown) [Compound I-115] | < 10 | < 10 | < 10 | 10 to 50 |
| Cn1cnc(-c2cc(Cl)c(F)c(C(=O)NNS(=O)(=O)C[C@@H]3CCN(C(=O)OC(C)(C)C)C3)c2)c1 [Compound I-117] | < 10 | < 10 | < 10 | 10 to 50 |
| O=C(NNS(=O)(=O)CC1CCOCC1)c1cc(-n2cccn2)cc(Cl)c1F [Compound I-41] | 10 to 50 | < 10 | 50 to 100 | > 100 |
| CCNC(=O)N[C@H]1CC[C@H](CS(=O)(=O)NNC(=O)c2cc(-c3cn(C)cn3)cc(Cl)c2F)CC1 [Compound I-109] | < 10 | < 10 | < 10 | 10 to 50 |
| Cn1cnc(-c2cc(Cl)c(F)c(C(=O)NNS(=O)(=O)C3CCOC3)c2)c1 (stereo not shown) [Compound I-27] | 10 to 50 | 50 to 100 | < 10 | > 100 |
| Cn1cnc(-c2cc(Cl)c(F)c(C(=O)NNS(=O)(=O)C3CCN(C(=O)OC(C)(C)C)CC3)c2)c1 [Compound I-3] | < 10 | < 10 | < 10 | > 100 |
| Cn1cnc(-c2cc(Cl)c(F)c(C(=O)NNS(=O)(=O)CC3CCCN(S(=O)(=O)C4CC4)C3)c2)c1 (stereo not shown) [Compound I-86] | < 10 | < 10 | < 10 | 10 to 50 |
| Cn1cnc(-c2cc(Cl)c(F)c(C(=O)NNS(=O)(=O)C3CCCCC3)c2)c1 [Compound I-2] | < 10 | < 10 | < 10 | 10 to 50 |
| CC(=O)N[C@H]1C[C@@H](CS(=O)(=O)NNC(=O)c2cc(-c3cn(C)cn3)cc(Cl)c2F)C1 [Compound I-116] | < 10 | < 10 | < 10 | 10 to 50 |
| Cn1cnc(-c2cc(Cl)c(F)c(C(=O)NNS(=O)(=O)CC3CCC3)c2)c1 [Compound I-31] | < 10 | < 10 | < 10 | 10 to 50 |
| Cn1cnc(-c2cc(Cl)c(F)c(C(=O)NNS(=O)(=O)CC3CCCC(NC(=O)OC(C)(C)C)C3)c2)c1 (stereo not shown) [Compound I-102] | < 10 | < 10 | < 10 | 10 to 50 |

The next lines start with the values.

| IC50 [1] [µM] | IC50 [2] [µM] | IC50 [3] [µM] | IC50 [4] [µM] | SMILES |
| --- | --- | --- | --- | --- |
| < 10 | < 10 | < 10 | 10 to 50 | Cn1cnc(-c2cc(Cl)c(F)c(C(=O)NNS(=O)(=O)c3cccnc3OCc3ccccc3)c2)c1 [Compound I-374] |
| < 10 | < 10 | < 10 | 10 to 50 | Cn1cnc(-c2cc(Cl)c(F)c(C(=O)NNS(=O)(=O)C[C@H]3C[C@@H](NS(C)(=O)=O)C3)c2)c1 [Compound I-173] |
| < 10 | < 10 | < 10 | 10 to 50 | COc1ccc(CNC(=O)N[C@H]2C[C@@H](CS(=O)(=O)NNC(=O)c3cc(-c4cn(C)cn4)cc(Cl)c3F)C2)cc1 [Compound I-213] |
| < 10 | < 10 | < 10 | 10 to 50 | Cn1cnc(-c2cc(Cl)c(F)c(C(=O)NNS(=O)(=O)CC3CCCN(C(=O)NCCO)C3)c2)c1 (stereo not shown) [Compound I-225] |
| < 10 | < 10 | < 10 | 10 to 50 | Cn1cnc(-c2cc(Cl)c(F)c(C(=O)NNS(=O)(=O)CC3(F)CCCCC3)c2)c1 [Compound I-358] |
| < 10 | < 10 | < 10 | 10 to 50 | Cn1cnc(-c2cc(Cl)c(F)c(C(=O)NNS(=O)(=O)c3ccccn3)c2)c1 [Compound I-330] |
| 10 to 50 | 10 to 50 | 10 to 50 | 10 to 50 | Cn1cnc(-c2cc(Cl)c(F)c(C(=O)NNS(=O)(=O)c3cncs3)c2)c1 [Compound I-257] |
| 10 to 50 | 10 to 50 | < 10 | > 100 | Cc1cc(-c2cn(C)cn2)cc(C(=O)NNS(=O)(=O)Cc2ccccc2)c1F [Compound I-128] |
| < 10 | 10 to 50 | < 10 | > 100 | Cn1cc(-c2cc(Cl)c(F)c(C(=O)NNS(=O)(=O)CC3CCCCC3)c2)cn1 [Compound I-158] |
| < 10 | < 10 | < 10 | 10 to 50 | Cn1cnc(-c2cc(Cl)c(F)c(C(=O)NNS(=O)(=O)CC3CCCC(NC(=O)c4ccccn4)C3)c2)c1 (stereo not shown) [Compound I-234] |
| < 10 | < 10 | < 10 | > 100 | Cc1cc(-c2cn(C)cn2)cc(C(=O)NNS(=O)(=O)CC2CCCN(C(=O)OC(C)(C)C)C2)c1F (stereo not shown) [Compound I-132] |
| 10 to 50 | < 10 | < 10 | 10 to 50 | Cn1cnc(-c2cc(Cl)c(F)c(C(=O)NNS(=O)(=O)CC3CN(S(=O)(=O)C4CCC4)C3)c2)c1 [Compound I-170] |
| < 10 | < 10 | < 10 | 10 to 50 | CC1CCCCC1CS(=O)(=O)NNC(=O)c1cc(-c2cn(C)cn2)cc(Cl)c1F (stereo not shown) [Compound I-335] |
| 10 to 50 | > 100 | < 10 | > 100 | Cc1cc(-c2cnn(C)c2)cc(C(=O)NNS(=O)(=O)C2CCCCC2)c1F [Compound I-156] |
| < 10 | < 10 | < 10 | 10 to 50 | CC(=O)Nc1cccc(S(=O)(=O)NNC(=O)c2cc(-c3cn(C)cn3)cc(Cl)c2F)c1 [Compound I-367] |
| > 100 | > 100 | > 100 | > 100 | COCCn1cnc(-c2cc(C)c(F)c(C(=O)NNS(=O)(=O)CC3CCCNC3)c2)c1 (stereo not shown) [Compound I-136] |
| < 10 | < 10 | < 10 | 10 to 50 | CCC(=O)N(C)C1CCC(CS(=O)(=O)NNC(=O)c2cc(-c3cn(C)cn3)cc(Cl)c2F)CC1 (stereo not shown) [Compound I-326] |
| < 10 | < 10 | < 10 | 10 to 50 | CCNC(=O)N[C@@H]1CCC[C@H](CS(=O)(=O)NNC(=O)c2cc(-c3cn(C)cn3)cc(Cl)c2F)C1 [Compound I-266] |
| < 10 | < 10 | < 10 | 10 to 50 | Cn1cnc(-c2cc(Cl)c(F)c(C(=O)NNS(=O)(=O)C[C@H]3CC[C@H](NC(=O)C4CCC4)CC3)c2)c1 [Compound I-196] |
